Legend:
Format in all cases: in vivo
[1] = tested on: soybean (Glycine max var. Winchester); assay: Preemergence herbicidal activity, soybean; details: Rate of Application 0.3 Kg/Ha, examined after 12-17 days
[2] = tested on: wheat (Triticum aestivum var. Lew); assay: Preemergence herbicidal activity, wheat; details: Rate of Application 0.3 Kg/Ha, examined after 12-17 days
[3] = tested on: field corn (Zea mays var. Pioneer 3732); assay: Preemergence herbicidal activity, corn; details: Rate of Application 0.3 Kg/Ha, examined after 12-17 days
[4] = tested on: velvetleaf (Abutilon theophrasti); assay: Preemergence herbicidal activity, velvetleaf; details: Rate of Application 0.3 Kg/Ha, examined after 12-17 days
[5] = tested on: morningglory (Ipomea lacunosa or Ipomea hederacea); assay: Preemergence herbicidal activity, morningglory; details: Rate of Application 0.3 Kg/Ha, examined after 12-17 days
[6] = tested on: common chickweed (Stellaria media); assay: Preemergence herbicidal activity, chickweed; details: Rate of Application 0.3 Kg/Ha, examined after 12-17 days
[7] = tested on: common cocklebur (Xanthium strumarium L.); assay: Preemergence herbicidal activity, cocklebur; details: Rate of Application 0.3 Kg/Ha, examined after 12-17 days
[8] = tested on: blackgrass (Aloepecurus myosuroides); assay: Preemergence herbicidal activity, blackgrass; details: Rate of Application 0.3 Kg/Ha, examined after 12-17 days
[9] = tested on: green foxtail (Setaria viridis); assay: Preemergence herbicidal activity, green foxtail; details: Rate of Application 0.3 Kg/Ha, examined after 12-17 days
[10] = tested on: Johnsongrass (Sorghum halepense); assay: Preemergence herbicidal activity, johnsongrass; details: Rate of Application 0.3 Kg/Ha, examined after 12-17 days
[11] = tested on: soybean (Glycine max var. Winchester); assay: Postemergence herbicidal activity, soybean; details: rate of application 0.3 Kg/Ha, rated after 12-17 days
[12] = tested on: wheat (Triticum aestivum var. Lew); assay: Postemergence herbicidal activity, wheat; details: rate of application 0.3 Kg/Ha, rated after 12-17 days
[13] = tested on: field corn (Zea mays var. Pioneer 3732); assay: Postemergence herbicidal activity, corn; details: rate of application 0.3 Kg/Ha, rated after 12-17 days
[14] = tested on: velvetleaf (Abutilon theophrasti); assay: Postemergence herbicidal activity, velvetleaf; details: rate of application 0.3 Kg/Ha, rated after 12-17 days
[15] = tested on: morningglory (Ipomea lacunosa or Ipomea hederacea); assay: Postemergence herbicidal activity, morningglory; details: rate of application 0.3 Kg/Ha, rated after 12-17 days
[16] = tested on: common cocklebur (Xanthium strumarium L.); assay: Postemergence herbicidal activity, cocklebur; details: rate of application 0.3 Kg/Ha, rated after 12-17 days
[17] = tested on: blackgrass (Aloepecurus myosuroides); assay: Postemergence herbicidal activity, blackgrass; details: rate of application 0.3 Kg/Ha, rated after 12-17 days
Method: The benzofused heterocyclic compounds of this invention were tested for pre- and postemergence herbicidal activity using a variety of crops and weeds. The test plants included soybean (Glycine max var. Winchester), field corn (Zea mays var. Pioneer 3732), wheat (Triticum aestivum var. Lew), morningglory (Ipomea lacunosa or Ipomea hederacea), velvetleaf (Abutilon theophrasti), green foxtail (Setaria viridis), Johnsongrass (Sorghum halepense), blackgrass (Aloepecurus myosuroides), common chickweed (Stellaria media), and common cocklebur (Xanthium strumarium L.).
For preemergence testing, two disposable fiber flats (8 cm×15 cm×25 cm) for each rate of application of each candidate herbicide were filled to an approximate depth of 6.5 cm with steam-sterilized sandy loam soil. The soil was leveled and impressed with a template to provide five evenly spaced furrows 13 cm long and 0.5 cm deep in each flat. Seeds of soybean, wheat, corn, green foxtail, and johnsongrass were planted in the furrows of the first flat, and seeds of velvetleaf, morningglory, common chickweed, cocklebur, and blackgrass were planted in the furrows of the second flat. The five-row template was employed to firmly press the seeds into place. A topping soil of equal portions of sand and sandy loam soil was placed uniformly on top of each flat to a depth of approximately 0.5 cm. Flats for postemergence testing were prepared in the same manner except that they were planted 9-14 days prior to the preemergence flats and were placed in a greenhouse and watered, thus allowing the seeds to germinate and the foliage to develop.
In both pre- and postemergence tests, a stock solution of the candidate herbicide was prepared by dissolving 0.27 g of the compound in 20 mL of water/acetone (50/50) containing 0.5% v/v sorbitan monolaurate. For an application rate of 3000 g/ha of herbicide a 10 mL portion of the stock solution was diluted with water/acetone (50/50) to 45 mL.
The preemergence flats were initially subjected to a light water spray. The four flats were placed two by two along a conveyor belt (i.e., the two preemergence followed by the two postemergence flats). The conveyor belt fed under a spray nozzle mounted about ten inches above the post-emergent foliage. The preemergent flats were elevated on the belt so that the soil surface was at the same level below the spray nozzle as the foliage canopy of the postemergent plants. The spray of herbicidal solution was commenced and once stabilized, the flats were passed under the spray at a speed to receive a coverage equivalent of 100 L/ha. At this coverage the application rates are those shown in the above table for the individual herbicidal solutions. The preemergence flats were watered immediately thereafter, placed in the greenhouse and watered regularly at the soil surface. The postemergence flats were immediately placed in the green-house and not watered until 24 hours after treatment with the test solution. Thereafter they were regularly watered at ground level. After 12-17 days the plants were examined and the phytotoxicity data were recorded.
Phytotoxicity data were taken as percent control. Percent control was determined by a method similar to the 0 to 100 rating system disclosed in “Research Methods in Weed Science,” 2nd ed., B. Truelove, Ed.; Southern Weed Science Society; Auburn University, Auburn, Ala., 1977.

[18] = tested on: green foxtail (Setaria viridis); assay: Postemergence herbicidal activity, green foxtail; details: rate of application 0.3 Kg/Ha, rated after 12-17 days
[19] = tested on: Johnsongrass (Sorghum halepense); assay: Postemergence herbicidal activity, johnsongrass; details: rate of application 0.3 Kg/Ha, rated after 12-17 days

SMILES | PREEMERGENCE HERBICIDAL ACTIVITY (% CONTROL) SOY [1] | PREEMERGENCE HERBICIDAL ACTIVITY (% CONTROL) WHT [2] | PREEMERGENCE HERBICIDAL ACTIVITY (% CONTROL) CRN [3] | PREEMERGENCE HERBICIDAL ACTIVITY (% CONTROL) ABUTH [4] | PREEMERGENCE HERBICIDAL ACTIVITY (% CONTROL) IPOSS [5] | PREEMERGENCE HERBICIDAL ACTIVITY (% CONTROL) STEME [6] | PREEMERGENCE HERBICIDAL ACTIVITY (% CONTROL) XANPE [7] | PREEMERGENCE HERBICIDAL ACTIVITY (% CONTROL) ALOMY [8] | PREEMERGENCE HERBICIDAL ACTIVITY (% CONTROL) SETVI [9] | PREEMERGENCE HERBICIDAL ACTIVITY (% CONTROL) SORHA [10] | Postemergence herbicidal activity (% control) SOY [11] | Postemergence herbicidal activity (% control) WHT [12] | Postemergence herbicidal activity (% control) CRN [13] | Postemergence herbicidal activity (% control) ABUTH [14] | Postemergence herbicidal activity (% control) IPOSS [15] | Postemergence herbicidal activity (% control) XANPE [16] | Postemergence herbicidal activity (% control) ALOMY [17] | Postemergence herbicidal activity (% control) SETVI [18] | Postemergence herbicidal activity (% control) SORHA [19] | also measured
COc1nc2c(-n3c(=O)cc(C(F)(F)F)n(C)c3=O)c(F)cc(Br)c2o1 [Compound 109, 1-METHYL-6-TRIFLUOROMETHYL-3-(7-BROMO-5-FLUORO-2-METHOXYBENZOXAZOL-4-YL)-2,4(1H,3H)-PYRIMIDINEDIONE] |  |  |  |  |  |  |  |  |  |  |  |  |  |  |  |  |  |  |  | inhibition at 300 g/ha ([1]; Glycine max, pre-emergence, read-out: PREEMERGENCE HERBICIDAL ACTIVITY (% CONTROL) SOY): 100%; inhibition at 300 g/ha ([2]; Triticum aestivum, pre-emergence, read-out: PREEMERGENCE HERBICIDAL ACTIVITY (% CONTROL) WHT): 100%; inhibition at 300 g/ha ([3]; Zea mays, pre-emergence, read-out: PREEMERGENCE HERBICIDAL ACTIVITY (% CONTROL) CRN): 90%; inhibition at 300 g/ha ([4]; Abutilon theophrasti, pre-emergence, read-out: PREEMERGENCE HERBICIDAL ACTIVITY (% CONTROL) ABUTH): 100%; inhibition at 300 g/ha ([5]; Ipomoea, pre-emergence, read-out: PREEMERGENCE HERBICIDAL ACTIVITY (% CONTROL) IPOSS): 100%; inhibition at 300 g/ha ([6]; Stellaria media, pre-emergence, read-out: PREEMERGENCE HERBICIDAL ACTIVITY (% CONTROL) STEME): 100%; inhibition at 300 g/ha ([7]; Xanthium strumarium, pre-emergence, read-out: PREEMERGENCE HERBICIDAL ACTIVITY (% CONTROL) XANPE): 100%; inhibition at 300 g/ha ([8]; Alopecurus myosuroides, pre-emergence, read-out: PREEMERGENCE HERBICIDAL ACTIVITY (% CONTROL) ALOMY): 100%; inhibition at 300 g/ha ([9]; Setaria viridis, pre-emergence, read-out: PREEMERGENCE HERBICIDAL ACTIVITY (% CONTROL) SETVI): 100%; inhibition at 300 g/ha ([10]; Sorghum halepense, pre-emergence, read-out: PREEMERGENCE HERBICIDAL ACTIVITY (% CONTROL) SORHA): 100%; inhibition at 300 g/ha ([11]; Glycine max, post-emergence, read-out: Postemergence herbicidal activity (% control) SOY): 90%; inhibition at 300 g/ha ([12]; Triticum aestivum, post-emergence, read-out: Postemergence herbicidal activity (% control) WHT): 90%; inhibition at 300 g/ha ([13]; Zea mays, post-emergence, read-out: Postemergence herbicidal activity (% control) CRN): 80%; inhibition at 300 g/ha ([14]; Abutilon theophrasti, post-emergence, read-out: Postemergence herbicidal activity (% control) ABUTH): 100%; inhibition at 300 g/ha ([15]; Ipomoea, post-emergence, read-out: Postemergence herbicidal activity (% control) IPOSS): 100%; inhibition at 300 g/ha ([16]; Xanthium strumarium, post-emergence, read-out: Postemergence herbicidal activity (% control) XANPE): 100%; inhibition at 300 g/ha ([17]; Alopecurus myosuroides, post-emergence, read-out: Postemergence herbicidal activity (% control) ALOMY): 90%; inhibition at 300 g/ha ([18]; Setaria viridis, post-emergence, read-out: Postemergence herbicidal activity (% control) SETVI): 100%; inhibition at 300 g/ha ([19]; Sorghum halepense, post-emergence, read-out: Postemergence herbicidal activity (% control) SORHA): 90%
C=CCOc1nc2c(-n3c(=O)cc(C(F)(F)F)n(C)c3=O)c(F)cc(Br)c2o1 [Compound 110] | 100% | 50% | 70% | 100% | 90% | 100% | 40% | 80% | 100% | 100% | 80% | 40% | 50% | 100% | 100% | 100% | 70% | 80% | 70% | 
Cn1c(C(F)(F)F)cc(=O)n(-c2c(F)cc(Cl)c3cc(CCF)oc23)c1=O [Compound 237] | 100% | 90% | 90% | 100% | 100% | 100% | 100% | 100% | 100% | 100% | 100% | 95% | 100% | 100% | 100% | 100% | 100% | 100% | 100% | 
Cn1c(C(F)(F)F)cc(=O)n(-c2ccc(Cl)c3cc(CO)oc23)c1=O [Compound 238] | 100% | 60% | 70% | 100% | 100% | 60% | 80% | 50% | 90% | 90% | 80% | 30% | 70% | 100% | 100% | 100% | 40% | 80% | 70% | 
